Source: patent publication US6689757B1, “Methods for vaccination and vaccines therefor” (M.L. Laboratories PLC, priority 1996, dated 2004)
“Also recorded” adds a separate entry of the source. Like-named read-outs stand apart in the source and are kept apart here.

Experiments:
human dendritic cells = format: cell-based
COS cells = format: cell-based; settings: pCMVβ DNA; medium with chloroquine; 5 hours; triplicate; FIG. 7
[1] = Zeta potential analysis of K6CL22-DNA complexes; format: physicochemical; settings: peptide:DNA ratio 1.4:1; Hepes
[2] = Photon correlation spectroscopy (PCS) particle size of K6CL22-DNA complexes; format: physicochemical
cells = format: cell-based

Substance	optimal peptide:DNA ratio for transfection (human dendritic cells; […], FIGS. 16 and 17)	transfection efficiency, CL26-complexed DNA compared to CL22-complexed DNA (human dendritic cells; […], FIGS. 16 and 17)	transfection efficiency, CL26-complexed DNA compared to CL22-complexed DNA (human dendritic cells; peptide/DNA ratio between 1 and 1.8, FIG. 18)	transfection of COS cells (β-galactosidase activity, relative light units per mg of protein) (COS cells)	zeta potential of the complex [1]	size of large particles/aggregates of complex ([2]; 150 mM NaCl, after one hour at room temperature, DNA 40 μg/ml)	average (Zav) particle size ([2]; K6CL22-DNA complexes)	average ratio at which aggregation occurs ([2]; K6CL22-DNA complexes) [μg peptide/μg DNA]	ratio range in which aggregation occurs ([2]; K6CL22-DNA complexes)	effect of coadministered chloroquine on transfection efficiency (cells)	transfection of dendritic cells (human dendritic cells; complexes of K6Cl22 peptide and pCMVb)	transfection efficiency, CL22-complexed DNA compared to CL26-complexed DNA (human dendritic cells; peptide/DNA ratio between 2 and 2.6, FIG. 18)	peptide/DNA ratio with highest transfection efficiency (human dendritic cells; ratio varied 1.2-2.6, 40 μM chloroquine, […], FIG. 10)
H-KKKKKKKKKKKKGGFLGFWRGENGRKTRSAYERMCNILKGK-OH [CL26]	1.6 mg CL26:1 mg DNA	higher efficiency	higher efficiency	–	–	–	–	–	–	–	–	–	–
NH2-KKKKKKGGFLGFWRGENGRKTRSAYERMCNILKGK-COOH (H-KKKKKKGGFLGFWRGENGRKTRSAYERMCNILKGK-OH) [K6CL22]	1.6-2.2 mg CL22:1 mg DNA	–	–	have been transfected; also recorded: very efficient transfection	zero	approx. 100 nm	approximately 100 nm	1.4	1.2-1.6 μg peptide/μg DNA	Increased transfection efficiency	have been transfected	greater	1.4-2.0
